pEC50: −log10 of the molar value.
Tested on: NL-RLuc virus
Experiment: Inhibition of HIV replication (NL-RLuc luciferase reporter virus in MT-2 cells)
Assay type: cell-based
Conditions: Human immunodeficiency virus 1, MT2, 120 h, read-out: Activity
Excerpt: Inhibition of HIV replication: A recombinant NL-RLuc proviral clone was constructed in which a section of the nef gene form NL4-3 was replaced with the Renilla Luciferase gene. This virus is fully infectious and can undergo multiple cycles of replication in cell culture. In addition, the luciferous reporter provides a simple and easy method for quantitating the extent of virus growth and consequently, the antiviral activity of test compounds. The plasmid pNLRLuc contains the proviral NL-Rluc DNA cloned into pUC18 at the PvuII site. The NL-RLuc virus was prepared by transfection of 293T cells with the plasmid pNLRLuc. Transfections were performed using the LipofectAMINE PLUS kit form Invitrogen (Carlsbad, Calif.) according to the manufacturer and the virus generated was titered in MT-2 cells. For susceptibility analyses, the titrated virus was used to infect MT-2 cells in the presence of compound, and after 5 days of incubation, cells were processed and quantitated for virus growth by the amount of expressed luciferase. Assay media was RPMI 1640 supplemented with 10% heat inactivated fetal bovine serum (FBS), 100 units/ml penicillin G/100 units/ml streptomycin, 10 mM HEPES buffer pH 7.55 and 2 mM L-glutamine. The results form at least 2 experiments were used to calculate the EC50 values. Luciferase was quantitated using the Dual Luciferase kit form Promega (Madison, Wis.). Susceptibility of viruses to compounds was determined by incubation in the presence of serial dilutions of the compound. The 50% effective concentration (EC50) was calculated by using the exponential form of the median effect equation where (Fa)=1/[1+(ED50/drug conc.)^m](Johnson V A, Byington R T. Infectivity Assay. In Techniques in HIV Research. ed. Aldovini A, Walker B D. 71-76. New York: Stockton Press. 1990). Activity equal to A refers to a compound having an EC50≤100 nM, while B and C denote compounds having an EC50 between 100 nM and 1 uM (B) or >1 uM (C).

SMILES	pEC50
Cc1nc(COCc2cccc(Cl)c2)c(-c2ccc(OCCc3ccc(F)cc3)cc2)c(N2CCC(C)(C)CC2)c1[C@H](OC(C)(C)C)C(=O)O [Example 16, (S)-2-(tert-Butoxy)-2-(6-(((3-chlorobenzyl)oxy)methyl)-4-(4,4-dimethylpiperidin-1-yl)-5-(4-(4-fluorophenethoxy)phenyl)-2-methylpyridin-3-yl)acetic acid]	> 7.00
CSCc1nc(C)c([C@H](OC(C)(C)C)C(=O)O)c(N2CCC(C)(C)CC2)c1-c1ccc(OCCc2ccc(F)cc2)cc1 [Example 17, (S)-2-(tert-Butoxy)-2-(4-(4,4-dimethylpiperidin-1-yl)-5-(4-(4-fluorophenethoxy)phenyl)-2-methyl-6-((methylthio)methyl)pyridin-3-yl)acetic acid]	> 7.00
Cc1nc(CS(C)(=O)=O)c(-c2ccc(OCCc3ccc(F)cc3)cc2)c(N2CCC(C)(C)CC2)c1[C@H](OC(C)(C)C)C(=O)O [Example 18, (S)-2-(tert-Butoxy)-2-(4-(4,4-dimethylpiperidin-1-yl)-5-(4-(4-fluorophenethoxy)phenyl)-2-methyl-6-((methylsulfonyl)methyl)pyridin-3-yl)acetic acid]	> 7.00
Cc1nc(COCC2CCOCC2)c(-c2ccc(OCCc3ccc(F)cc3)cc2)c(N2CCC(C)(C)CC2)c1[C@H](OC(C)(C)C)C(=O)O [Example 19, (S)-2-(tert-Butoxy)-2-(4-(4,4-dimethylpiperidin-1-yl)-5-(4-(4-fluorophenethoxy)phenyl)-2-methyl-6-(((tetrahydro-2H-pyran-4-yl)methoxy)methyl)pyridin-3-yl)acetic acid]	> 7.00
Cc1nc(COCc2nc(C)c([C@H](OC(C)(C)C)C(=O)O)c(N3CCC(C)(C)CC3)c2-c2ccc(OCCc3ccc(F)cc3)cc2)sc1C [Example 20, (S)-2-(tert-Butoxy)-2-(4-(4,4-dimethylpiperidin-1-yl)-6-(((4,5-dimethylthiazol-2-yl)methoxy)methyl)-5-(4-(4-fluorophenethoxy)phenyl)-2-methylpyridin-3-yl)acetic acid]	> 7.00
Cc1nc(COCC2CN(C(=O)OC(C)(C)C)C2)c(-c2ccc(OCCc3ccc(F)cc3)cc2)c(N2CCC(C)(C)CC2)c1[C@H](OC(C)(C)C)C(=O)O [Example 21, (S)-2-(tert-Butoxy)-2-(6-(((1-(tert-butoxycarbonyl)azetidin-3-yl)methoxy)methyl)-4-(4,4-dimethylpiperidin-1-yl)-5-(4-(4-fluorophenethoxy)phenyl)-2-methylpyridin-3-yl)acetic acid]	> 7.00
Cc1nc(COCC2CNC2)c(-c2ccc(OCCc3ccc(F)cc3)cc2)c(N2CCC(C)(C)CC2)c1[C@H](OC(C)(C)C)C(=O)O [Example 22, (S)-2-(6-((Azetidin-3-ylmethoxy)methyl)-4-(4,4-dimethylpiperidin-1-yl)-5-(4-(4-fluorophenethoxy)phenyl)-2-methylpyridin-3-yl)-2-(tert-butoxy)acetic acid]	> 7.00
CCN(CC)CCOCc1nc(C)c([C@H](OC(C)(C)C)C(=O)O)c(N2CCC(C)(C)CC2)c1-c1ccc(OCCc2ccc(F)cc2)cc1 [Example 23, (S)-2-(tert-Butoxy)-2-(6-((2-(diethylamino)ethoxy)methyl)-4-(4,4-dimethylpiperidin-1-yl)-5-(4-(4-fluorophenethoxy)phenyl)-2-methylpyridin-3-yl)acetic acid]	> 7.00
Cc1nc(COCCN2CCOCC2)c(-c2ccc(OCCc3ccc(F)cc3)cc2)c(N2CCC(C)(C)CC2)c1[C@H](OC(C)(C)C)C(=O)O [Example 24, (S)-2-(tert-Butoxy)-2-(4-(4,4-dimethylpiperidin-1-yl)-5-(4-(4-fluorophenethoxy)phenyl)-2-methyl-6-((2-morpholinoethoxy)methyl)pyridin-3-yl)acetic acid]	> 7.00
Cc1cc(C)n(COCc2nc(C)c([C@H](OC(C)(C)C)C(=O)O)c(N3CCC(C)(C)CC3)c2-c2ccc(OCCc3ccc(F)cc3)cc2)n1 [Example 25, (S)-2-(tert-Butoxy)-2-(6-(((3,5-dimethyl-1H-pyrazol-1-yl)methoxy)methyl)-4-(4,4-dimethylpiperidin-1-yl)-5-(4-(4-fluorophenethoxy)phenyl)-2-methylpyridin-3-yl)acetic acid]	> 7.00
Cc1nc(COCN2CCCC2=O)c(-c2ccc(OCCc3ccc(F)cc3)cc2)c(N2CCC(C)(C)CC2)c1[C@H](OC(C)(C)C)C(=O)O [Example 26, (S)-2-(tert-Butoxy)-2-(4-(4,4-dimethylpiperidin-1-yl)-5-(4-(4-fluorophenethoxy)phenyl)-2-methyl-6-(((2-oxopyrrolidin-1-yl)methoxy)methyl)pyridin-3-yl)acetic acid]	> 7.00
Cc1nc(COCCN2CCCCC2)c(-c2ccc(OCCc3ccc(F)cc3)cc2)c(N2CCC(C)(C)CC2)c1[C@H](OC(C)(C)C)C(=O)O [Example 27, (S)-2-(tert-Butoxy)-2-(4-(4,4-dimethylpiperidin-1-yl)-5-(4-(4-fluorophenethoxy)phenyl)-2-methyl-6-((2-(piperidin-1-yl)ethoxy)methyl)pyridin-3-yl)acetic acid]	> 7.00
Cc1nc(COCCN2CCS(=O)(=O)CC2)c(-c2ccc(OCCc3ccc(F)cc3)cc2)c(N2CCC(C)(C)CC2)c1[C@H](OC(C)(C)C)C(=O)O [Example 28, (S)-2-(tert-Butoxy)-2-(4-(4,4-dimethylpiperidin-1-yl)-6-((2-(1,1-dioxidothiomorpholino)ethoxy)methyl)-5-(4-(4-fluorophenethoxy)phenyl)-2-methylpyridin-3-yl)acetic acid]	> 7.00
Cc1nc(COCC2CCC2)c(-c2ccc(OCCc3ccc(F)cc3)cc2)c(N2CCC(C)(C)CC2)c1[C@H](OC(C)(C)C)C(=O)O [Example 29, (S)-2-(tert-Butoxy)-2-(6-((cyclobutylmethoxy)methyl)-4-(4,4-dimethylpiperidin-1-yl)-5-(4-(4-fluorophenethoxy)phenyl)-2-methylpyridin-3-yl)acetic acid]	> 7.00
Cc1nc(COCC2CC(F)(F)C2)c(-c2ccc(OCCc3ccc(F)cc3)cc2)c(N2CCC(C)(C)CC2)c1[C@H](OC(C)(C)C)C(=O)O [Example 30, (S)-2-(tert-Butoxy)-2-(6-(((3,3-difluorocyclobutyl)methoxy)methyl)-4-(4,4-dimethylpiperidin-1-yl)-5-(4-(4-fluorophenethoxy)phenyl)-2-methylpyridin-3-yl)acetic acid]	> 7.00
Cc1ncn(Cc2nc(C)c([C@H](OC(C)(C)C)C(=O)O)c(N3CCC(C)(C)CC3)c2-c2ccc(OCCc3ccc(F)cc3)cc2)n1 [Example 31, (S)-2-(tert-Butoxy)-2-(4-(4,4-dimethylpiperidin-1-yl)-5-(4-(4-fluorophenethoxy)phenyl)-2-methyl-6-((3-methyl-1H-1,2,4-triazol-1-yl)methyl)pyridin-3-yl)acetic acid]	> 7.00
Cc1nc(Cn2ncnc2C)c(-c2ccc(OCCc3ccc(F)cc3)cc2)c(N2CCC(C)(C)CC2)c1[C@H](OC(C)(C)C)C(=O)O [Example 32, (S)-2-(tert-butoxy)-2-(4-(4,4-dimethylpiperidin-1-yl)-5-(4-(4-fluorophenethoxy)phenyl)-2-methyl-6-((5-methyl-1H-1,2,4-triazol-1-yl)methyl)pyridin-3-yl)acetic acid]	> 7.00
Cc1nc(Cn2cnnc2C)c(-c2ccc(OCCc3ccc(F)cc3)cc2)c(N2CCC(C)(C)CC2)c1[C@H](OC(C)(C)C)C(=O)O [Example 33, (S)-2-(tert-butoxy)-2-(4-(4,4-dimethylpiperidin-1-yl)-5-(4-(4-fluorophenethoxy)phenyl)-2-methyl-6-((3-methyl-4H-1,2,4-triazol-4-yl)methyl)pyridin-3-yl)acetic acid]	> 7.00
CCOCCOCc1nc(C)c([C@H](OC(C)(C)C)C(=O)O)c(N2CCC(C)(C)CC2)c1-c1ccccc1 [Example 34, (S)-2-(tert-Butoxy)-2-(4-(4,4-dimethylpiperidin-1-yl)-6-((2-ethoxyethoxy)methyl)-2-methyl-5-phenylpyridin-3-yl)acetic acid]	> 7.00
CCOCCOCc1cc(N2CCC(C)(C)CC2)c([C@H](OC(C)(C)C)C(=O)O)c(C)n1 [Example 35, (S)-2-(tert-butoxy)-2-(4-(4,4-dimethylpiperidin-1-yl)-6-((2-ethoxyethoxy)methyl)-2-methylpyridin-3-yl)acetic acid]	6.00 to 7.00
CCOCCOCc1nc(C)c([C@H](OC(C)(C)C)C(=O)O)c(N2CCC(C)(C)CC2)c1C [Example 36, (S)-2-(tert-Butoxy)-2-(4-(4,4-dimethylpiperidin-1-yl)-6-((2-ethoxyethoxy)methyl)-2,5-dimethylpyridin-3-yl)acetic acid]	> 7.00
CCOCCOCc1nc(C)c([C@H](OC(C)(C)C)C(=O)O)c(N2CCC(C)(C)CC2)c1Br [Example 37, (S)-2-(5-bromo-4-(4,4-dimethylpiperidin-1-yl)-6-((2-ethoxyethoxy)methyl)-2-methylpyridin-3-yl)-2-(tert-butoxy)acetic acid]	> 7.00

Same assay, conditions: Human immunodeficiency virus 1, MT2, 120 h, read-out: EC50 μM

SMILES	EC50
Cc1nc(COCCN2CCOCC2)c(-c2ccc(OCCc3ccc(F)cc3)cc2)c(N2CCC(C)(C)CC2)c1[C@H](OC(C)(C)C)C(=O)O [Example 24, (S)-2-(tert-Butoxy)-2-(4-(4,4-dimethylpiperidin-1-yl)-5-(4-(4-fluorophenethoxy)phenyl)-2-methyl-6-((2-morpholinoethoxy)methyl)pyridin-3-yl)acetic acid]	0.001 µM
Cc1ncn(Cc2nc(C)c([C@H](OC(C)(C)C)C(=O)O)c(N3CCC(C)(C)CC3)c2-c2ccc(OCCc3ccc(F)cc3)cc2)n1 [Example 31, (S)-2-(tert-Butoxy)-2-(4-(4,4-dimethylpiperidin-1-yl)-5-(4-(4-fluorophenethoxy)phenyl)-2-methyl-6-((3-methyl-1H-1,2,4-triazol-1-yl)methyl)pyridin-3-yl)acetic acid]	0.009 µM
CCOCCOCc1cc(N2CCC(C)(C)CC2)c([C@H](OC(C)(C)C)C(=O)O)c(C)n1 [Example 35, (S)-2-(tert-butoxy)-2-(4-(4,4-dimethylpiperidin-1-yl)-6-((2-ethoxyethoxy)methyl)-2-methylpyridin-3-yl)acetic acid]	0.316 µM
